Experimental data from paper PMC8921294, “Inhibition of mitochondrial LonP1 protease by allosteric blockade of ATP binding and hydrolysis via CDDO and its derivatives” (The Journal of Biological Chemistry, 2022).

Experiments:
LonP1 C637S = target: T1, LonP1 C637S (Homo sapiens, UniProt P36776, C637S); experiment: Endpoint ATPase assay, LonP1 C637S; assay type: biochemical
T1 construct: hexa-histidine (N); made in house; host or cells: Rosetta 2 E. coli
T1 sequence (P36776 68-959 C637S): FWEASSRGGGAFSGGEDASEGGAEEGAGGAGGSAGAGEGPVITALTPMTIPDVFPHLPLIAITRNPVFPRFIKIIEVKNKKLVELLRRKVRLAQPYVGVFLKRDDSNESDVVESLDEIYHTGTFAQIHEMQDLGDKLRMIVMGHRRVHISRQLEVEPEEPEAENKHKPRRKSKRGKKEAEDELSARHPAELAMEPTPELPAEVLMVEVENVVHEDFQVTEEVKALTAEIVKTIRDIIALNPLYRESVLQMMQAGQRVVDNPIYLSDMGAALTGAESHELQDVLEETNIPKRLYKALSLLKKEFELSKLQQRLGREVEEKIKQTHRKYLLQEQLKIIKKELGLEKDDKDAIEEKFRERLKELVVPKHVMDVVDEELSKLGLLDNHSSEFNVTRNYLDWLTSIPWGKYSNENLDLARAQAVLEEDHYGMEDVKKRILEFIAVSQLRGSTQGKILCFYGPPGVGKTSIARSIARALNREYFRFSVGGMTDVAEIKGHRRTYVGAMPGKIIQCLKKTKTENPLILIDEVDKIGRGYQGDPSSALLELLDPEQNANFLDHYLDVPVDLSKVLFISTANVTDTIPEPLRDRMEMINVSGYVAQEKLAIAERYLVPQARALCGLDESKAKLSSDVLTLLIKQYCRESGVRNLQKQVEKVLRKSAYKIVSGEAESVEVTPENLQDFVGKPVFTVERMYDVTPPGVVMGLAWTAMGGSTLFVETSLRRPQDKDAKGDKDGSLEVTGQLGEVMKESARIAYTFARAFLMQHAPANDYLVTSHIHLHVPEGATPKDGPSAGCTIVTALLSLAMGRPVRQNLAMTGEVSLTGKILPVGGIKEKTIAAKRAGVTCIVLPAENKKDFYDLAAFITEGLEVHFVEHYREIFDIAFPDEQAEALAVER
Protocol: Human mitochondrial LonP1 and mutants lacking the predicted mitochondrial targeting sequence were fused to an N-terminal hexa-histidine affinity tag, expressed in Rosetta 2 E. Coli, and purified using a nickel agarose column as previously described ([72]) and protein concentration and buffer exchange carried out using Amicon Ultra centrifugal filtration. LonP1 mutant constructs were obtained from the PCR-based QuikChange Site-Directed Mutagenesis Kit.
ADP-Glo (Promega) assays were performed according to the manufacturer's protocols. Purified wild-type or mutant LonP1 (400 nM monomer), the 26S proteasome (3 nM), or no enzyme controls were preincubated in 96-well plates (60 min, 25 °C) with ten different concentrations of CDDO and its derivatives, TP-82, enoxolone (5 μM) or DMSO vehicle control in buffer (40 mM Tris-HCl (pH 7.5), 20 mM MgCl2, 0.1 mg/ml BSA and 5% DMSO). The 26S and 20S proteasome were also assayed at 0, 0.75, 1.5, 3, 6, and 12 nM in the absence of CDDO derivatives. […] Assay reagents were used to quench further ATPase activity and generate luminescence signals proportional to the concentration of ADP formed. Background (no enzyme control) luminescence values were subtracted, and resultant values were reported as a percentage of the no drug control (100%). […]

HeLa ρ^0 cells = experiment: Cytotoxicity/apoptosis in HeLa ρ^0 cells (cleaved PARP, procaspase 3 immunoblot); assay type: cell-based, human; conditions: 7 h, Fig. 4D
Protocol: HeLa cells devoid of mitochondrial DNA (HeLa ρ^0) and LCL cells were generated as described previously ([50]). DMEM, RPMI, and fetal bovine serum were purchased from Sigma. All cells were grown with 5% CO2 at 37 °C. LCL cells were cultured in RPMI supplemented with 15% FBS. HeLa Rho 0 cells were cultured in high glucose DMEM (25 mM) (Sigma) supplemented with sodium pyruvate ([…]) and uridine ([…]). CDDO-Me was purchased from Cayman chemicals, and CDDO-AH was synthesized as described previously ([20]). HEK293 cells plated in 60 mm dishes at a confluency of 60 to 70% were transfected with Control or 3′UTR LonP1 siRNA using Lipofectamine 2000 (Invitrogen) and reduced serum OPTI MEM (Sigma) as described in the manufacturer’s protocol to knockdown LonP1, whereas adenoviral transduction was employed to overexpress LonP1. CDDO-Me and CDDO-anhydride were dissolved in DMSO and serially diluted in the respective complete medium and added to HeLa ρ^0 cells and were treated for 7 or 24 h.
Cells were harvested, centrifuged, and washed with PBS and proteins were extracted by adding the lysis buffer (50 mM Tris, [pH 7.5], 300 mM NaCl, and 0.5% Triton X-100) containing 2X Halt phosphatase and protease cocktail inhibitor (Thermo Scientific) for 20 min on ice. After centrifugation at 14,000 rpm for 15 min at 4 °C, the supernatant was collected and estimated for protein by Bradford’s method. […]

| Fold increase in inhibition compared with WT (LonP1 C637S) | IC50 (LonP1 C637S; end-point ATPase assay, N = 1, read-out: CDDO IC50) [µM] | Compound | Concentration up to which no change in procaspase 3 levels was observed (HeLa ρ^0 cells) |
| --- | --- | --- | --- |
| 4.7 | 3 | CC1(C)CC[C@]2(C(=O)O)CC[C@]3(C)[C@H](C(=O)C=C4[C@@]5(C)C=C(C#N)C(=O)C(C)(C)[C@@H]5CC[C@]43C)[C@@H]2C1 [CDDO, 2-cyano-3,12-dioxooleana-1,9(11)-dien-28-oic acid] | – |
| – | – | CC1(C)CC[C@]2(C(=O)OC(=O)[C@]34CCC(C)(C)C[C@H]3[C@H]3C(=O)C=C5[C@@]6(C)C=C(C#N)C(=O)C(C)(C)[C@@H]6CC[C@@]5(C)[C@]3(C)CC4)CC[C@]3(C)[C@H](C(=O)C=C4[C@@]5(C)C=C(C#N)C(=O)C(C)(C)[C@@H]5CC[C@]43C)[C@@H]2C1 [CDDO-anhydride] | up to 5 μM |
